From patent publication EP2601963B1, “N-ISOVALEROYL-L-GLUTAMYL-L-TRYPTOPHAN AS AN AGENT INHIBITING THE FORMATION OF ULCERS IN THE STOMACH AND THE DUODENUM” (Obshestvo S Ogranichennoj Otvetstvennostju "CytoNIR", priority 2010, dated 2015)

Test system: indomethacin-induced gastric ulcers
Assay: Indomethacin-induced ulcer model, preventive treatment: gastric lesions
Format: in vivo, male Wistar rats
Parameters: key to GA1 (gastroprotective activity calculated for number of lesions): GA1 = Pauls Index of control / Pauls Index of treated group; key to GA2 (gastroprotective activity calculated for lesion size): GA2 = Ulcer Index of control / Ulcer Index of treated group; key to Ulcer Index: UI = mean lesion area in group x % animals with lesions / 100; Small round Size / Total Size / Large round Size / Linear Size / Lesion Size: unit not given here
Details: for # Lesions / % Animals with Ulcers / GA1 (gastroprotective activity calculated for number of lesions) / GA2 (gastroprotective activity calculated for lesion size) / Lesion Size / PI / Ulcer Index / Large round Amount / Large round Size / Linear Amount / Linear Size / Small round Amount / Small round Size / Total Amount / Total Size: preventive; for Large round Amount / Large round Size / Linear Amount / Linear Size / Small round Amount / Small round Size / Total Amount / Total Size: indomethacin-induced ulcers
Method: All studies were conducted on male Wistar rats weighing 220 ± 20 g, obtained from Rappolovo nursery (Leningrad oblast). For 14 days prior to the experiment, the animals were held in isolation. The animals were handled in accordance with the European Convention for the Protection of Vertebrate Animals used for Experimental and Other Scientific Purposes (Strasburg, 1986). The animals were held in standard plastic cages and fed a standard diet of PK120-3 (granulated feed in accordance with order # 1179 M3 USSR 10/10/1983) with a free access to water.
Animals' body weight changes were monitored throughout the experiment. The experimental animals were then sacrificed by decapitation, and their blood was collected in test tubes. The stomachs were extracted, dissected along the major curve, rinsed with cold saline solution, and the mucosa was carefully examined through a magnifying glass under bright lights. The mucosa was inspected for color, the presence of hyperemia and its intensity. The number of lesions, which were differentiated into small round (less than 1 mm), linear, and large lesions (more than 1mm) and the size of the area they covered were calculated. The average number of lesions per one animal in a group and the percentage of animals with ulcers were also calculated. Pauls Index (PI) was used as an integral indicator of the number of lesions and was calculated as follows: • PI = average number of lesions in a group x % of animals with lesions/100 [Pauls F., Wick A.M.,Mac. Key E.M. et al. An assau method for anti ulcer substances // Gastroenterology.- 1947. #8.- p.p.774 - 782]. Ulcer index UI was calculated as: UI = average lesion area size in the group x % of animals with lesions/100; gastroprotective activity GA1 was calculated as: GA1 = PI of the control group/PI of the experimental group, GA2 = UI of the control group/UI of the experimental group.
Five groups of 10 animals per group were prepared for the experiment as described in Example 1.
In each series of experiments, the animals were divided into experimental and control groups at 10 animals per group. The animals in the experimental group were orally administered the proposed medication or a comparator drug, and the control animals were given distilled water in the same amount. • control group received distilled water per os; • experimental group 1 received 0.1 mkg/kg N-isovaleroyl-L-glutamyl-L-tryptophan; • experimental group 2 received 10 mkg/kg N-isovaleroyl-L-glutamyl-L-tryptophan; • experimental group 3 received 200 mkg/kg of the comparator drug Sucralfate.
The efficacy of the course of preventive treatment with the claimed composition was evaluated 24 hrs. post indomethacin administration. The study was conducted as in Example 1.

[1] = 0.1 mkg/kg + Indomethacin 20 mg/kg
[2] = 10 mkg/kg + Indomethacin 20 mg/kg

N-isovaleroyl-L-glutamyl-L-tryptophan [VGT preparation]
# Lesions [1]: 7.5 ± 1.0
% Animals with Ulcers [1]: 100%
GA1 (gastroprotective activity calculated for number of lesions) [1]: 2.84
GA2 (gastroprotective activity calculated for lesion size) [1]: 5.51
Lesion Size [1]: 4.1 ± 0.9
PI [1]: 7.5
Ulcer Index [1]: 4.1
Large round Amount (0.1 mkg/kg): 2.7 ± 0.5
Large round Size (0.1 mkg/kg): 1.4 ± 0.3
Linear Amount (0.1 mkg/kg): 2.0 ± 0.7
Linear Size (0.1 mkg/kg): 1.9 ± 0.7
Small round Amount (0.1 mkg/kg): 2.8 ± 0.7
Small round Size (0.1 mkg/kg): 0.8 ± 0.2
Total Amount (0.1 mkg/kg): 7.5 ± 1.0
Total Size (0.1 mkg/kg): 4.1 ± 0.9
# Lesions [2]: 8.3 ± 1.7
% Animals with Ulcers [2]: 100%
GA1 (gastroprotective activity calculated for number of lesions) [2]: 2.57
GA2 (gastroprotective activity calculated for lesion size) [2]: 5.51
Lesion Size [2]: 4.1 ± 1.6
PI [2]: 8.3
Ulcer Index [2]: 4.1
Large round Amount (10.0 mkg/kg): 3.5 ± 0.9
Large round Size (10.0 mkg/kg): 1.7 ± 0.6
Linear Amount (10.0 mkg/kg): 1.2 ± 0.5
Linear Size (10.0 mkg/kg): 1.8 ± 1.1
Small round Amount (10.0 mkg/kg): 3.6 ± 1.3
Small round Size (10.0 mkg/kg): 0.5 ± 0.1
Total Amount (10.0 mkg/kg): 8.3 ± 1.7
Total Size (10.0 mkg/kg): 4.1 ± 1.6
size of the lesions in the gastric mucosa reduced (preventive treatment, indomethacin-induced lesions): 5 times
